Source: patent US9358261B2, “Additional artemisinin and berberine compositions and methods of making” (U.S. Phytotherapy, Inc., priority 2011, dated 2016)

Key:
[1] = test system: Lyme disease; assay: Lyme Disease Case Study #2; type: in vivo, human; details: treatments before coACT A-B, person
Excerpt: They worked as a full-time project manager for a non-profit food bank, and lives in the United States. Their symptoms first appeared in August of 2010. When […] was first diagnosed they had skin rashes that were not helped with topical treatments, low-grade fevers, severe migraines, continuous muscle aches, sore throat, stomach pain, joint pains, gynecological issues, and constant fatigue. The initial indication was hives on stomach and back which grew to circular rashes on both thighs, all directly following an insect bite from a horse fly.
From these professionals they were diagnosed not only with Lyme disease, but the following diagnoses and/or misdiagnoses: fibromyalgia, depression, arthritis, pinched nerve, burning mouth syndrome, and mycotoxic poisoning. By May 2011 they were confirmed with Lyme disease and subsequently reconfirmed by another physician in August 2011. Their case of Lyme disease was clinically diagnosed based on lab findings, Western Blot, and symptomatology. […] Tindamax was likewise not tolerated. […] Other anti-fungals caused pain and further reduced their energy levels.
[…] […] They reported climbing the lighthouse stairs in St. Augustine, Fla. without suffering a decrease in energy afterwards, which was atypical for them at that time. […] Kathy has stated that coACT provided them with “a few really good weeks which is invaluable when you haven't functioned normally for some time. For chronic long-term patients, I suspect additional dosing (like every few months or so) is necessary. For newcomers or uncomplicated cases, it could be a bridge to health and healing.

[2] = test system: JCV; details: literature case reports; cited from earlier work
[3] = test system: chikungunya virus; details: 250 mg/day; cited from earlier work
[4] = test system: chikungunya disease; details: cell culture and monkeys; cited from earlier work

| Compound | outcome of earlier treatments in patient history [1] | other results |
| --- | --- | --- |
| CCCSc1ccc2nc(NC(=O)OC)[nH]c2c1 [Albendazole] | seemed to help them with passing parasites | – |
| Nc1ccn([C@@H]2O[C@H](CO)[C@@H](O)[C@@H]2O)c(=O)n1 [Cytarabine] | – | clinical outcome in PML patients [2]: stabilized the neurological condition of a minority of these patients |
| CCS(=O)(=O)CCn1c([N+](=O)[O-])cnc1C [Tindamax] | not tolerated | – |
| CO/N=C(\C(=O)N[C@@H]1C(=O)N2C(C(=O)O)=C(CSc3nc(=O)c(=O)[nH]n3C)CS[C@H]12)c1csc(N)n1 [Rocephin] | helped restore their energy, but caused an allergic reaction | – |
| C[C@@H]1[C@H](O)[C@@H](C)/C=C/C=C/CC/C=C/C=C/C=C/C=C/C(O[C@H]2O[C@H](C)[C@@H](O)[C@H](N)[C@@H]2O)CC2O[C@](O)(CC(O)C(O)CCC(O)CC(O)CC(O)CC(=O)O[C@H]1C)CC(O)C2C(=O)O (some centres unmarked) [Nystatin] | neither of which made any detectable difference | – |
| OC(c1cc(C(F)(F)F)nc2c(C(F)(F)F)cccc12)C1CCCCN1 (centres unmarked) [mefloquine] | – | clinical outcome in PML patients [2]: seemed to eliminate the virus from the patient's body and prevented further neurological deterioration |
| Ivermectin | helped them to pass parasites in their stool, but left their lifeless, dizzy, and with nystagmus | – |
| CCN(CC)CCCC(C)Nc1ccnc2cc(Cl)ccc12 (centres unmarked) [chloroquine phosphate] | – | effect on arthritis-like symptoms not relieved by aspirin and NSAID [3]: promising results |
| CN1CCCN=C1/C=C/c1cccs1.O=C(O)c1cc2ccccc2c(Cc2c(O)c(C(=O)O)cc3ccccc23)c1O [Pyrantal Pamoate] | helped them to pass parasites in their stool, but left their lifeless, dizzy, and with nystagmus | – |
| CCN(CC)CCCC(C)Nc1ccnc2cc(Cl)ccc12 (centres unmarked) [chloroquine] | – | reduction of chikungunya disease [4]: no effect |
| Nc1nc2c(ncn2COCCO)c(=O)[nH]1 [Acyclovir] | caused their symptoms to worsen in that they could not lift their arms | – |
